Assay results taken from patent publication US6982148B2, “Progressive elevated gene-3 (PEG-3) induces aggressive cancer phenotype and regulates angiogenesis” (The Trustees of Columbia University in the City of New York, priority 1999, dated 2006).

Experiments:
[1] = test system: VEGF; assay: VEGF transcription and steady-state mRNA in E11 cells after transient PEG-3 transfection; type: cell-based, rat; details: added 4 hr after PEG-3 transfection of E11 cells
Experimental: Transfection of PEG-3 into E11 cells induces steady-state VEGF mRNA. E11 cells were transfected with a pZeoSV/PEG-3 or pZeo SV vector, 4 hr later replicate cultures received cycloheximide and 30 hr later total RNA was extracted and analyzed by Northern blotting for PEG-3, VEGF, Ad5 ElA and GAPDH mRNA expression.
Nucleic Acid Analyses. Steady-state levels of PEG-3, VEGF, ElA, and GAPHD mRNA were determined by Northern analysis of total cytoplasmic RNA using appropriate multiprimed ^32P-labeled cloned cDNA probes as described previously (18,19). Briefly, 10 μg of total RNA from the different cell types were electrophoresed in a 1% agarose gel, transferred to a nylon membrane and hybridized with the different ^32p-labeled CDNA fragments. The membrane was stripped and hybridized with indicated probes sequentially. […]
To examine further the relationship between PEG-3 and VEGF, experiments were performed to determined if transient ectopic expression of PEG-3 in rodent and human tumor cells could elevate VEGF expression. E11 cells were transfected with a PEG-3 expression construct, nuclei were isolated and evaluated for elevated VEGF transcription and total cytoplasmic RNA was isolated and steady-state VEGF mRNA levels were determined by Northern blotting (FIG. 8 and data not shown). […]

[2] = test system: PEG-3; assay: PEG-3 mRNA and transcription after DNA damage; type: cell-based, rat; details: following DNA damage
Source text: The specific role of the gadd34/MyD116 gene in cellular physiology is not known. Like hamster gadd34 and its murine homologue MyD116, PEG-3 steady-state mRNA and RNA transcriptional levels are increased following DNA damage by methyl methanesulfonate (MMS) and gamma irradiation (γIR) (FIGS. 2 and 5 and data not shown). In contrast, nuclear run-on assays indicate that only the PEG-3 gene is transcriptionally active (transcribed) as a function of transformation progression (FIG. 5). This is apparent in CREF cells transformed by Ha-ras and in E11-NMT and various E11-NMT subclones either expressing or not expressing the progression phenotype (FIG. 5). The gadd34/MyD116 gene, as well as the gadd45, MyD118 and gadd153 genes, encode acidic proteins with very similar and unusual charge characteristics (24). PEG-3 also encodes a putative protein with acidic properties similar to the gadd and MyD genes (FIG. 3). The carboxyl-terminal domain of the murine MyD116 protein is homologous to the corresponding domain of the herpes simplex virus 1 γ134.5 protein, that prevents the premature shutoff of total protein synthesis in infected human cells (35,36). Replacement of the carboxyl-terminal domain of γ134.5 with the homologous region from MyD116 results in a restoration of function to the herpes viral genome, i.e., prevention of early host shutoff of protein synthesis (36). […]

SMILES	Effect on PEG-3 induced elevation of VEGF transcription and RNA [1]	PEG-3 steady-state mRNA and RNA transcriptional levels [2]
C[C@@H]1C[C@@H]([C@H](O)CC2CC(=O)NC(=O)C2)C(=O)[C@@H](C)C1 [cycloheximide]	prevented	–
COS(C)(=O)=O [MMS, methyl methanesulfonate]	–	increased
